Source: ChEMBL document CHEMBL1201862, “PubChem BioAssay data set” (2004)
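A five-concentration, 48-hour dose response in 96-well plates underlies each endpoint, interpolated linearly between surrounding concentrations. The concentration for 50% growth inhibition is given as GI50.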 The source made the active and inactive calls. Cut-off read from the data, not from the text of the source: active = GI50 up to about 1.1 µM and inactive = higher.

How the values were obtained:
Test in all cases: inhibition of tumour cell growth, NCI panel, 48 h
786-0 = system: 786-0
A549 = system: A549
HL-60 = system: HL-60
HOP-92 = system: HOP-92
K562 = system: K562
LOX IMVI = system: LOX IMVI
NCI-H226 = system: NCI-H226
OVCAR-3 = system: OVCAR-3
RPMI-8226 = system: RPMI-8226
SF-268 = system: SF-268
SW-620 = system: SW-620
UACC-62 = system: UACC-62
UO-31 = system: UO-31

Measured: GI50

COC(=O)C1=C(O)c2cc(OC)c(OC)c(OC)c2[C@H](c2cc(OC)c(OC)c(OC)c2)C1C(=O)OC (stereo partly drawn)
inactive: 786-0 34 µM | A549 49.8 µM | HL-60 16.8 µM | HOP-92 9.89 µM | K562 24.5 µM | LOX IMVI 41.1 µM | NCI-H226 49.3 µM | OVCAR-3 22.9 µM | RPMI-8226 28.2 µM | SF-268 42.1 µM | SW-620 29 µM | UACC-62 14 µM | UO-31 41.9 µM

O=C(NCCc1ccccc1)C1C(=O)C(=O)N(CCc2ccccc2)C1=O (stereo not drawn)
inactive: 786-0 > 100 µM | A549 > 100 µM | HL-60 > 100 µM | HOP-92 > 100 µM | K562 > 100 µM | LOX IMVI > 100 µM | NCI-H226 > 100 µM | OVCAR-3 > 100 µM | RPMI-8226 > 100 µM | SF-268 > 100 µM | SW-620 > 100 µM | UACC-62 > 100 µM | UO-31 > 100 µM

Cc1c(C(=O)C/C(=N/NC(=O)CC#N)C(N)=O)[n+]([O-])c2ccccc2[n+]1[O-]
inactive: 786-0 > 100 µM | A549 > 100 µM | HL-60 17.7 µM | HOP-92 > 100 µM | K562 52.1 µM | LOX IMVI 34.3 µM | NCI-H226 > 100 µM | OVCAR-3 22.9 µM | RPMI-8226 33.9 µM | SF-268 34.3 µM | SW-620 17.7 µM | UACC-62 33 µM | UO-31 > 100 µM

Cc1cc(N(CCC#N)CCC#N)ccc1/C=C/C(=O)Nc1ccccc1Cl
inactive: 786-0 > 100 µM | A549 > 100 µM | HL-60 31.4 µM | HOP-92 > 100 µM | K562 > 100 µM | LOX IMVI > 100 µM | NCI-H226 > 100 µM | OVCAR-3 > 100 µM | RPMI-8226 > 100 µM | SF-268 > 100 µM | SW-620 > 100 µM | UACC-62 > 100 µM | UO-31 > 100 µM

Cc1cccc(=O)c([O-])c1.Cc1cccc(=O)c([O-])c1.[Bi+3].[Cl-]
inactive: 786-0 13.7 µM | A549 12.9 µM | HL-60 3 µM | HOP-92 6.01 µM | K562 4.46 µM | LOX IMVI 9.55 µM | NCI-H226 18.1 µM | OVCAR-3 2.74 µM | RPMI-8226 3.42 µM | SF-268 6.61 µM | SW-620 5.47 µM | UACC-62 7.96 µM | UO-31 11.5 µM

C/C=C/C(=O)Oc1cccc2cccnc12
inactive: 786-0 29.2 µM | A549 18.8 µM | HL-60 4.32 µM | HOP-92 8.32 µM | K562 6.08 µM | LOX IMVI 9.2 µM | NCI-H226 25.1 µM | OVCAR-3 3.24 µM | RPMI-8226 9.73 µM | SF-268 3.2 µM | SW-620 5.61 µM | UACC-62 6.98 µM | UO-31 6.97 µM
